According to the NIST ThermoML archive (doi:10.1016/j.jct.2004.06.009):

Assay: molar heat capacity at constant pressure
Conditions: 101.33 kPa

CCC12CC3CC(CC(C3)C1)C2 [1-ethyladamantane]
Conditions	molar heat capacity at constant pressure [J/K/mol]
176.11 K, Crystal	129.2
177.66 K, Crystal	130.08
179.2 K, Crystal	131.06
180.74 K, Crystal	132.22
182.28 K, Crystal	133.41
183.82 K, Crystal	134.59
185.36 K, Crystal	135.72
186.9 K, Crystal	136.96
188.44 K, Crystal	138.08
189.98 K, Crystal	139.07
191.52 K, Crystal	140.27
193.06 K, Crystal	141.34
194.59 K, Crystal	142.65
196.12 K, Crystal	143.78
197.65 K, Crystal	144.95
199.17 K, Crystal	146.07
200.7 K, Crystal	147.28
202.23 K, Crystal	148.71
205.28 K, Crystal	150.89
206.8 K, Crystal	152.02
208.31 K, Crystal	152.99
209.83 K, Crystal	154.47
211.34 K, Crystal	155.33
212.86 K, Crystal	156.65
214.37 K, Crystal	157.99
215.88 K, Crystal	159.85
217.38 K, Crystal	161.46
218.88 K, Crystal	163.87
220.38 K, Crystal	167.18
228.19 K, Liquid	213.96
229.69 K, Liquid	214.76
231.15 K, Liquid	216.02
232.62 K, Liquid	216.73
234.09 K, Liquid	217.38
235.55 K, Liquid	218.44
237.02 K, Liquid	218.96
238.48 K, Liquid	219.64
239.95 K, Liquid	220.45
241.41 K, Liquid	222.1
242.87 K, Liquid	222.52
244.34 K, Liquid	223.6
245.81 K, Liquid	224.53
247.27 K, Liquid	225.06
248.74 K, Liquid	225.78
250.2 K, Liquid	226.74
251.63 K, Liquid	227.78
253.09 K, Liquid	228.8
254.56 K, Liquid	229.67
256.02 K, Liquid	230.53
257.48 K, Liquid	231.41
258.94 K, Liquid	232.48
260.41 K, Liquid	233.18
261.87 K, Liquid	234.01
263.33 K, Liquid	235.14
264.79 K, Liquid	236.35
266.25 K, Liquid	237.17
267.71 K, Liquid	238.18
269.18 K, Liquid	238.96
270.64 K, Liquid	240.09
272.1 K, Liquid	240.99
273.56 K, Liquid	242.19
274.98 K, Liquid	242.56
276.44 K, Liquid	243.82
277.9 K, Liquid	244.9
279.36 K, Liquid	245.49
280.82 K, Liquid	246.39
282.28 K, Liquid	247.77
283.74 K, Liquid	248.37
285.2 K, Liquid	249.48
286.65 K, Liquid	250.83
288.11 K, Liquid	251.75
289.57 K, Liquid	252.24
291.03 K, Liquid	253.03
292.48 K, Liquid	254.46
293.94 K, Liquid	255.49
295.4 K, Liquid	256.65
296.85 K, Liquid	257.72
298.28 K, Liquid	258.45
299.74 K, Liquid	259.79
301.19 K, Liquid	260.37
302.65 K, Liquid	261.81
304.1 K, Liquid	262.96
305.56 K, Liquid	263.59
307.02 K, Liquid	264.26
308.47 K, Liquid	265.38
309.93 K, Liquid	266.44
311.38 K, Liquid	267.77
312.84 K, Liquid	268.68
314.29 K, Liquid	268.95
315.75 K, Liquid	271
317.21 K, Liquid	271.58
318.66 K, Liquid	272.26
320.12 K, Liquid	273.19
321.55 K, Liquid	274.59
323 K, Liquid	275.5
324.46 K, Liquid	276.62
325.92 K, Liquid	277.16
327.37 K, Liquid	278.45
328.83 K, Liquid	279.65
330.29 K, Liquid	280.77
331.75 K, Liquid	281.88
332.28 K, Liquid	282.18
333.21 K, Liquid	282.65
333.65 K, Liquid	283.08
334.66 K, Liquid	283.89
335.01 K, Liquid	284.12
336.12 K, Liquid	284.89
336.37 K, Liquid	285.08
337.58 K, Liquid	285.8
337.72 K, Liquid	286.15
339.07 K, Liquid	287.35
340.41 K, Liquid	288.22
341.76 K, Liquid	289.11
342.95 K, Liquid	290.27
344.28 K, Liquid	291.29
345.62 K, Liquid	292.19
346.95 K, Liquid	292.96
348.28 K, Liquid	294.44
349.61 K, Liquid	295.79
350.93 K, Liquid	296.76
352.25 K, Liquid	297.68
353.57 K, Liquid	298.69
354.88 K, Liquid	299.75
356.19 K, Liquid	300.53
357.5 K, Liquid	301.48
358.78 K, Liquid	302.8
360.08 K, Liquid	303.82
361.37 K, Liquid	304.5
362.66 K, Liquid	305.46
363.76 K, Liquid	305.56
365.04 K, Liquid	306.42
366.32 K, Liquid	307.62
367.59 K, Liquid	308.68
368.87 K, Liquid	309.55
370.13 K, Liquid	310.5
371.4 K, Liquid	311.2
372.65 K, Liquid	312.25
373.9 K, Liquid	313.52
